Results: PMC10583824, “The rational design of ARUK2007145, a dual inhibitor of the α and γ isoforms of the lipid kinase phosphatidylinositol 5-phosphate 4-kinase (PI5P4K)” (RSC Medicinal Chemistry, 2023)
Values after ≈ are worked out from the molar mass of the structure shown.

What was measured:
[1] = tested on: MDCK-MDR1 cells; test: MDR1-MDCK bi-directional permeability and efflux; conditions: MDCK-MDR1 cells; A2B; 10 µM
Method: (§2) MDR1-MDCK Permeability (bi-directional): was performed by Cyprotex Discovery. Briefly, compounds were administered at 10 µM (1% DMSO final) to the apical or basolateral side of a confluent monolayer of MDR1-MDCK cells, then incubated at 37 °C for 60 minutes before appearance on the opposite side of the monolayer was determined LC-MS/MS. The efflux ratio (ER) is calculated from the ratio of B-A to A-B permeabilities.

[2] = Turbidimetric aqueous solubility; format: physicochemical; conditions: pH 7.4, turbidimetric
Method: (§1) ADMET experimental methods […]
Turbidimetric aqueous solubility: analysis was performed by Cyprotex Discovery. Compound in DMSO at 10 mM was serially diluted to solutions of 0.1, 0.3, 1 and 3 mM in DMSO, then further diluted 1 in 100 in buffer (0.01 M PBS, pH 7.4, 1% DMSO final). 7 replicate wells of each dilution were equilibrated for 2 hours at 37 °C before absorbance is measured at 620 nm. The solubility is estimated from the concentration of test compound that produces an increase in absorbance above vehicle control (1% DMSO in buffer). […]

[3] = biological target: T1, PI5P4Kα (Homo sapiens, UniProt P48426); conditions: for PI5P4Kα pIC50: ADP-Glo, footnote a: inconsistent replicates, value shown is upper limit; for ADP-Glo pIC50 PI5P4Kα: Table S1, two decimals, asterisk not explained
T1 sequence (P48426 1-406): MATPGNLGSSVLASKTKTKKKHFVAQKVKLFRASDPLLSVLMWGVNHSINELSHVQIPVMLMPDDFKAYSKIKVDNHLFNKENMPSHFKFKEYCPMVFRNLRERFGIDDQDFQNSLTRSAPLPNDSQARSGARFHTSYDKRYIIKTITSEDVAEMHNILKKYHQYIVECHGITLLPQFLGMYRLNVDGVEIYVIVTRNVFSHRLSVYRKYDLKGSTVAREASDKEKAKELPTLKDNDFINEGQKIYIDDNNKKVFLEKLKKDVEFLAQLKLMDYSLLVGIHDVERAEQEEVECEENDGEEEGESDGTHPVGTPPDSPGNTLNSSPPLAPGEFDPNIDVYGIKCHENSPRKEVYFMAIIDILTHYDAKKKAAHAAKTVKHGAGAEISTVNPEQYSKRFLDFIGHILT

[4] = biological target: T2, PI5P4Kβ (Homo sapiens, UniProt P78356); test: PI5P4Kβ ADP-Glo kinase assay
T2 sequence (P78356 1-416): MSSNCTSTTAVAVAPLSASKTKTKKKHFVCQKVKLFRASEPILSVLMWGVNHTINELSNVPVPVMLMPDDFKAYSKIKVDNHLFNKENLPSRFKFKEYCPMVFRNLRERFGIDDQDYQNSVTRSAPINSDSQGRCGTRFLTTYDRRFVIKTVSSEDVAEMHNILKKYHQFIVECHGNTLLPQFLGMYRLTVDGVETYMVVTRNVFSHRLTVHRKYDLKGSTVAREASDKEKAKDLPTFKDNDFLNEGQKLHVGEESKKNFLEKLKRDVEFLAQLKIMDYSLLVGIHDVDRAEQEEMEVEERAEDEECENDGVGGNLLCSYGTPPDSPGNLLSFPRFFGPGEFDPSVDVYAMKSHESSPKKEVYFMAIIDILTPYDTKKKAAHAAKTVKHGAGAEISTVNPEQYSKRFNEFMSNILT

[5] = biological target: T3, PI5P4Kγ+ (Homo sapiens, UniProt Q8TBX8, D138G/D197E/E133P/E135D/E153T/E196G/G139A/N195G/S132L/S134N); test: biochemical
T3 sequence (Q8TBX8 with tags, fused parts or gaps INS131LPN/S132D/E133S/S134Q/E135A/G136R/D138G/G139A/E153T/N195G/E196G/D197E): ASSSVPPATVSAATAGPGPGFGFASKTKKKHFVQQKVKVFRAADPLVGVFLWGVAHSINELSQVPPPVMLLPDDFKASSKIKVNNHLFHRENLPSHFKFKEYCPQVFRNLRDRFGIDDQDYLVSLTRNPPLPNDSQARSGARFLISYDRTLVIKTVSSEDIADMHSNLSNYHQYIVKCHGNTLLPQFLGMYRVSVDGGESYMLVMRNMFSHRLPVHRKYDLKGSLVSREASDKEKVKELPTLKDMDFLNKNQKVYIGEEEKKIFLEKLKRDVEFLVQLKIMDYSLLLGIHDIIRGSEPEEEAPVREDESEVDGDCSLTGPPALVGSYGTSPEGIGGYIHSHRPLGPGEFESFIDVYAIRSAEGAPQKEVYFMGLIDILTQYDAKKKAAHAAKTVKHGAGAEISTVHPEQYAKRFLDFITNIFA

[6] = Mouse liver microsome stability; format: in vitro ADME; conditions: mouse liver microsomes half-life; read-out: MLM t½
Method: as §1
Mouse Microsomal stability: analysis was performed by Cyprotex Discovery. Briefly, test compounds in DMSO
protein/mL) in the presence of NADPH (1 mM) at 37 °C. Aliquots were taken at time intervals (0, 5, 15, 30 and
compound remaining, allowing the determination of the half-life for the compound.

[7] = biological target: T4, PI5P4Kγ-WT (Homo sapiens, UniProt Q8TBX8); test: InCELL Pulse cellular target engagement (thermal stabilisation) assay; conditions: Hek293 cells stably expressing ePL-tagged PI5P4Kγ
T4 sequence (Q8TBX8 1-421): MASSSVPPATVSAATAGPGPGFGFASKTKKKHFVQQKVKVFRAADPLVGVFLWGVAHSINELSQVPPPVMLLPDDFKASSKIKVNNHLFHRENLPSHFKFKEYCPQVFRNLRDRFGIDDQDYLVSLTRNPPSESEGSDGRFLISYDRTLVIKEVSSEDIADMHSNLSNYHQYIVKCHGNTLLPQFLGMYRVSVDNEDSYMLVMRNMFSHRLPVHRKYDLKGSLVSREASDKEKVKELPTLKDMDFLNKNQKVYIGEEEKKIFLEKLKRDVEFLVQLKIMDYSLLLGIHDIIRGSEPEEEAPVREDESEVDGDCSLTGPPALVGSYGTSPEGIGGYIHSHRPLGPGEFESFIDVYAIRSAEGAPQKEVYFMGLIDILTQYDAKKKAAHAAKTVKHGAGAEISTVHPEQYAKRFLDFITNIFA

[8] = biological target: T1, PI5P4Kα; test: biochemical
[9] = tested on: PI5P4Kγ+; conditions: ratio PI5P4Kα IC50 / PI5P4Kγ+ IC50, ADP-Glo
[10] = tested on: MDR1 (P-gp); test: MDR1-MDCK bi-directional permeability and efflux; conditions: dog, MDCK-MDR1
Method: as §2

[11] = ADP-Glo pIC50 PI5P4Kγ+, Table S1, two decimals, asterisk not explained
[12] = PI5P4Kγ+ pIC50, ADP-Glo, footnote a: inconsistent replicates, value shown is upper limit
[13] = ADP-Glo pIC50 PI5P4Kα, Table S1, two decimals, asterisk not explained
[14] = PI5P4Kα pIC50, ADP-Glo, footnote a: inconsistent replicates, value shown is upper limit

| Structure (SMILES) | P app (A2B) [1] | solubility at 2 h [2] | PI5P4Kα pIC50 [3] | ADP-Glo pIC50 PI5P4Kβ [4] | IC50 [5, 11] | IC50 [5, 12] | half-life at 1 µM [6] | InCELL Pulse pIC50 PI5P4Kγ-WT [7] | IC50 [8, 13] | Fold-selectivity (α IC50/γ IC50) [9] | ADP-Glo pIC50 PI5P4Kα [3] | IC50 [8, 14] | efflux ratio at 60 min, 10 µM [10] |
| --- | --- | --- | --- | --- | --- | --- | --- | --- | --- | --- | --- | --- | --- |
| Cn1cc(-c2cc3c(Nc4ccc(S(C)(=O)=O)cc4)ncnc3s2)cn1 [Compound 8] | 2.88 10^−6 cm s^−1 | 30 µM (≈ 11.6 µg/mL) | 5.2 | 4.9 | 36.3 nM | 39.8 nM | 73.3 min | 6.7 |  |  |  |  |  |
| CSc1ccc(Nc2ncnc3sc(-c4ccncc4C)cc23)cc1 [Compound 26] | 3.7 ^d 10^−6 cm s^−1 | 3 µM (≈ 1.09 µg/mL) | 6.9 |  | 19.5 nM | 20 nM | 0.94 min |  | 135 nM |  |  |  |  |
| Cc1ncccc1-c1cc2c(Nc3ccc(S(C)(=O)=O)cc3)ncnc2s1 [Compound 17] | 1.33 10^−6 cm s^−1 | 10 µM (≈ 3.96 µg/mL) | 6.0 | 4.7 | 20.9 nM | 20 nM | 35.5 min | 7.3 | 1120 nM |  |  |  |  |
| CS(=O)(=O)c1ccc(Nc2ncnc3sc(-c4cccnc4)cc23)cc1 [Compound 9] |  |  | 5.3 |  | 34.7 nM | 31.6 nM |  |  | 4570 nM | 130 |  |  |  |
| Cc1ncccc1-c1cc2ncnc(Nc3ccc(N4CCCC4=O)cc3)c2s1 [Compound 42] | 3.15 10^−6 cm s^−1 | 10 µM (≈ 4.01 µg/mL) | 7.0 |  | 8.32 nM | 7.94 nM | 5.39 min |  | 112 nM |  |  |  |  |
| COc1ccc(Nc2ncnc3sc(-c4ccncc4C)cc23)cc1 [Compound 27] |  |  | 6.2 |  | 661 nM | 631 nM |  |  | 708 nM | 1.1 |  |  |  |
| CSc1ccc(Nc2ncnc3sc(-c4cccnc4Cl)cc23)cc1 [Compound 28] |  |  | 6.6 |  | 18.6 nM | 20 nM |  |  | 229 nM | 12 |  |  |  |
| Cc1cnccc1-c1cc2c(Nc3ccc(S(C)(=O)=O)cc3)ncnc2s1 [Compound 10] | 3.13 10^−6 cm s^−1 | 30 µM (≈ 11.9 µg/mL) | 6.2 | 4.9 | 12.9 nM | 12.6 nM | 9.23 min | 7.7 | 708 nM |  |  |  |  |
| CS(=O)(=O)c1ccc(Nc2ncnc3sc(-c4ccncc4)cc23)cc1 [Compound 6] |  |  | 5.9 |  | 22.4 nM | 20 nM |  |  | 1410 nM | 63 |  |  |  |
| COc1cnccc1-c1cc2c(Nc3ccc(S(C)(=O)=O)cc3)ncnc2s1 [Compound 11] |  |  |  |  | 32.4 nM | ≥ 31.6 nM |  |  |  | 79 | 5.58 | ≥ 2510 nM |  |
| Cc1cccc(Nc2ncnc3sc(-c4cccnc4C)cc23)c1 [Compound 21] |  |  | 5.5 |  | 5250 nM | 5010 nM |  |  | 3550 nM | 0.63 |  |  |  |
| CS(=O)(=O)c1ccc(Nc2ncnc3cc(-c4cccnc4Cl)sc23)cc1 [Compound 37] | 1.33 10^−6 cm s^−1 | 10 µM (≈ 4.17 µg/mL) | 6.5 |  | 11.7 nM | 12.6 nM | 70.8 min | 7.4 | 355 nM |  |  |  |  |
| Cc1ncccc1-c1cc2ncnc(Nc3ccc4ncoc4c3)c2s1 [Compound 41] |  |  | 5.5 |  | 562 nM | 501 nM |  |  |  | 5.9 | 5.48 |  |  |
| COc1ccc(Nc2ncnc3sc(-c4cccnc4C)cc23)cc1 [Compound 20] |  |  | 5.9 |  | 1910 nM | 2000 nM |  |  |  | 0.69 | 5.88 |  |  |
| Cc1sc2ncnc(Nc3ccc(S(C)(=O)=O)cc3)c2c1C [Compound 35] |  |  | <4.3 |  |  | 200 nM |  |  |  | >250 |  |  |  |
| CS(=O)(=O)c1ccc(Nc2ncnc3sc(-c4ccnc(Cl)c4)cc23)cc1 [Compound 13] |  |  |  |  | 64.6 nM | 63.1 nM |  |  |  | 130 | 5.08 | ≥ 7940 nM |  |
| CSc1ccc(Nc2ncnc3sc(-c4cccnc4C)cc23)cc1 [Compound 25] |  |  | 6.6 |  | 46.8 nM | 50.1 nM |  |  | 282 nM | 5.0 |  |  |  |
| CS(=O)(=O)c1ccc(Nc2ncnc3sc(-c4cccnc4Cl)cc23)cc1 [Compound 15] | 4.73 10^−6 cm s^−1 | 3 µM (≈ 1.25 µg/mL) | 6.2 | 4.9 | 12.9 nM | 12.6 nM | 383 min | 7.1 | 708 nM |  |  |  |  |
| CSc1ccc(Nc2ncnc3cc(-c4cccnc4Cl)sc23)cc1 [Compound 39] | 12.9 10^−6 cm s^−1 | 10 µM (≈ 3.85 µg/mL) | 7.3 |  | 8.71 nM | 7.94 nM | 0.44 min | 7.3 | 46.8 nM |  |  |  |  |
| CS(=O)(=O)c1ccc(Nc2ncnc3scc(Cl)c23)cc1 [Compound 32] | 14.2 10^−6 cm s^−1 | 10 µM (≈ 3.4 µg/mL) | <6.2 |  |  | 50.1 nM | 51.4 min |  |  |  |  |  | 3.7 |
| Cc1csc2ncnc(Nc3ccc(S(C)(=O)=O)cc3)c12 [Compound 31] |  |  | <4.3 |  |  | 50.1 nM |  |  |  | >980 |  |  |  |
| CS(=O)(=O)c1ccc(Nc2ncnc3sc(-c4ccccc4)cc23)cc1 [Compound 5] | 6.23 10^−6 cm s^−1 | 1 µM (≈ 0.381 µg/mL) |  |  |  |  |  |  |  |  |  |  |  |
